Experimental data taken from PubChem BioAssay AID344 (DTP/NCI, 2004).
Several values for one entry are separate records, joined by “and”; a condition that tells them apart may be missing. Equal values may be shown once. Toxic doses and inconclusive results are not listed.

Tested on: mice, LPC-1 plasma cell tumor ip, median survival T/C
Assay: NCI In Vivo Anticancer Drug Screen. Data for tumor model Lieberman Plasma Cell No. 1 (LPC-1) (intraperitoneal) in unknown mice
Conditions: endpoint: median survival time, higher = longer survival
Experimental: The antitumor activity of compounds was measured in mice bearing transplantable tumors. Survival or tumor size were measured and the results are expressed as the measurement made in the treated group (T) divided by the measurement made in the vehicle treated control group (C). The tumor model used in this assay is Lieberman Plasma Cell No. 1 (LPC-1) (intraperitoneal) in unknown mice

Structure (SMILES): N[C@@H](Cc1ccc(N(CCCl)CCCl)cc1)C(=O)O
- T/C (dose: 0.57 mg/kg/injection, schedule: Q01DX024 (oral), vehicle: carboxymethylcellulose (CMC)): 92 % of control
- T/C (dose: 0.64 mg/kg/injection, schedule: Q01DX028 (sc), vehicle: saline): 170 % of control
- T/C (dose: 0.65 mg/kg/injection, schedule: Q## X024 (sc), vehicle: saline): 96 % of control
- T/C (dose: 1.07 mg/kg/injection, schedule: Q01DX028 (sc), vehicle: saline): 107 % of control
- T/C (dose: 1.08 mg/kg/injection, schedule: Q01DX008 (sc), vehicle: saline): 96 % of control
- T/C (dose: 1.08 mg/kg/injection, schedule: Q01DX009 (sc), vehicle: saline): 103 % of control
- T/C (dose: 1.08 mg/kg/injection, schedule: Q## X024 (sc), vehicle: saline): 96 % of control
- T/C (dose: 1.15 mg/kg/injection, schedule: Q01DX024 (oral), vehicle: carboxymethylcellulose (CMC)): 100 % of control
- T/C (dose: 1.7 mg/kg/injection, schedule: Q01DX028 (sc), vehicle: saline): 182 % of control
- T/C (dose: 1.8 mg/kg/injection, schedule: Q01DX005 (sc), vehicle: saline): 381 % of control
- T/C (dose: 1.8 mg/kg/injection, schedule: Q01DX008 (sc), vehicle: saline): 100 % of control
- T/C (dose: 1.8 mg/kg/injection, schedule: Q01DX009 (sc), vehicle: saline): 103 % of control
- T/C (dose: 1.8 mg/kg/injection, schedule: Q## X024 (sc), vehicle: saline): 103 % of control
- T/C (dose: 1.87 mg/kg/injection, schedule: Q01DX005 (oral), vehicle: carboxymethylcellulose (CMC)): 88 % of control
- T/C (dose: 1.87 mg/kg/injection, schedule: Q## X015 (oral), vehicle: carboxymethylcellulose (CMC)): 190 % of control
- T/C (dose: 1.9 mg/kg/injection, schedule: Q01DX005 (ip), vehicle: saline): 161 % of control
- T/C (dose: 1.9 mg/kg/injection, schedule: Q## X015 (ip), vehicle: saline): 105 % of control
- T/C (dose: 2.3 mg/kg/injection, schedule: Q01DX024 (oral), vehicle: carboxymethylcellulose (CMC)): 91 % of control and 102 % of control
- T/C (dose: 2.9 mg/kg/injection, schedule: Q01DX028 (sc), vehicle: saline): 155 % of control
- T/C (dose: 3.0 mg/kg/injection, schedule: Q01DX008 (sc), vehicle: saline): 96 % of control
- T/C (dose: 3.0 mg/kg/injection, schedule: Q01DX009 (sc), vehicle: saline): 100 % of control
- T/C (dose: 3.0 mg/kg/injection, schedule: Q01DX028 (sc), vehicle: saline): 164 % of control and 167 % of control and 152 % of control
- T/C (dose: 3.0 mg/kg/injection, schedule: Q04DX003 (sc), vehicle: saline): 109 % of control
- T/C (dose: 3.0 mg/kg/injection, schedule: Q## X024 (sc), vehicle: saline): 96 % of control
- T/C (dose: 3.75 mg/kg/injection, schedule: Q01DX005 (oral), vehicle: carboxymethylcellulose (CMC)): 100 % of control and 104 % of control
- T/C (dose: 3.75 mg/kg/injection, schedule: Q## X010 (oral), vehicle: carboxymethylcellulose (CMC)): 95 % of control and 97 % of control
- T/C (dose: 3.75 mg/kg/injection, schedule: Q## X015 (oral), vehicle: carboxymethylcellulose (CMC)): 214 % of control and 117 % of control
- T/C (dose: 3.8 mg/kg/injection, schedule: Q## X010 (ip), vehicle: saline): 214 % of control
- T/C (dose: 3.8 mg/kg/injection, schedule: Q## X015 (ip), vehicle: saline): 202 % of control
- T/C (dose: 4.0 mg/kg/injection, schedule: Q01DX028 (sc), vehicle: methylcellulose (MC)): 97 % of control
- T/C (dose: 4.5 mg/kg/injection, schedule: Q01DX024 (oral), vehicle: carboxymethylcellulose (CMC)): 88 % of control and 102 % of control
- T/C (dose: 5.0 mg/kg/injection, schedule: Q01DX008 (sc), vehicle: saline): 96 % of control
- T/C (dose: 5.0 mg/kg/injection, schedule: Q01DX009 (sc), vehicle: saline): 103 % of control
- T/C (dose: 5.0 mg/kg/injection, schedule: Q01DX024 (ip), vehicle: saline): 111 % of control
- T/C (dose: 5.0 mg/kg/injection, schedule: Q01DX028 (sc), vehicle: saline): 104 % of control and 105 % of control
- T/C (dose: 5.0 mg/kg/injection, schedule: Q04DX003 (sc), vehicle: saline): 166 % of control
- T/C (dose: 5.0 mg/kg/injection, schedule: Q## X024 (sc), vehicle: saline): 96 % of control
- T/C (dose: 7.5 mg/kg/injection, schedule: Q01DX005 (oral), vehicle: carboxymethylcellulose (CMC)): 94 % of control and 104 % of control
- T/C (dose: 7.5 mg/kg/injection, schedule: Q## X010 (oral), vehicle: carboxymethylcellulose (CMC)): 91 % of control and 95 % of control
- T/C (dose: 7.5 mg/kg/injection, schedule: Q## X015 (ip), vehicle: saline): 108 % of control
- T/C (dose: 8.4 mg/kg/injection, schedule: Q01DX005 (sc), vehicle: saline): 96 % of control
- T/C (dose: 8.4 mg/kg/injection, schedule: Q01DX008 (sc), vehicle: saline): 96 % of control
- T/C (dose: 8.4 mg/kg/injection, schedule: Q01DX009 (sc), vehicle: saline): 100 % of control
- T/C (dose: 8.4 mg/kg/injection, schedule: Q01DX028 (sc), vehicle: saline): 100 % of control
- T/C (dose: 8.4 mg/kg/injection, schedule: Q04DX003 (sc), vehicle: saline): 118 % of control
- T/C (dose: 9.0 mg/kg/injection, schedule: Q01DX024 (oral), vehicle: carboxymethylcellulose (CMC)): 88 % of control and 90 % of control
- T/C (dose: 10.0 mg/kg/injection, schedule: Q01DX024 (ip), vehicle: saline): 94 % of control
- T/C (dose: 14.0 mg/kg/injection, schedule: Q04DX003 (sc), vehicle: saline): 109 % of control
- T/C (dose: 15.0 mg/kg/injection, schedule: Q01DX005 (ip), vehicle: saline): 91 % of control
- T/C (dose: 15.0 mg/kg/injection, schedule: Q## X010 (ip), vehicle: saline): 88 % of control
- T/C (dose: 15.0 mg/kg/injection, schedule: Q## X010 (oral), vehicle: carboxymethylcellulose (CMC)): 97 % of control
- T/C (dose: 15.0 mg/kg/injection, schedule: Q## X015 (ip), vehicle: saline): 88 % of control
- T/C (dose: 15.0 mg/kg/injection, schedule: Q## X015 (oral), vehicle: carboxymethylcellulose (CMC)): 88 % of control and 90 % of control
- T/C (dose: 18.0 mg/kg/injection, schedule: Q01DX001 (ip), vehicle: saline): 123 % of control
- T/C (dose: 19.0 mg/kg/injection, schedule: Q01DX001 (oral), vehicle: carboxymethylcellulose (CMC)): 90 % of control
- T/C (dose: 23.0 mg/kg/injection, schedule: Q04DX003 (sc), vehicle: saline): 103 % of control
- T/C (dose: 30.0 mg/kg/injection, schedule: Q01DX005 (oral), vehicle: carboxymethylcellulose (CMC)): 88 % of control and 90 % of control
- T/C (dose: 30.0 mg/kg/injection, schedule: Q## X015 (oral), vehicle: carboxymethylcellulose (CMC)): 90 % of control
- T/C (dose: 37.5 mg/kg/injection, schedule: Q01DX001 (ip), vehicle: saline): 94 % of control
- T/C (dose: 39.0 mg/kg/injection, schedule: Q01DX001 (sc), vehicle: saline): 96 % of control
- T/C (dose: 60.0 mg/kg/injection, schedule: Q01DX005 (oral), vehicle: carboxymethylcellulose (CMC)): 88 % of control
- T/C (dose: 65.0 mg/kg/injection, schedule: Q01DX001 (ip), vehicle: saline): 88 % of control
- T/C (dose: 65.0 mg/kg/injection, schedule: Q01DX001 (sc), vehicle: saline): 96 % of control

Structure (SMILES): CN(C)c1ccc(/C=C/c2ccnc3ccccc23)cc1
- T/C (dose: 2.0 mg/kg/injection, schedule: Q01DX028 (sc), vehicle: carboxymethylcellulose (CMC)): 95 % of control
- T/C (dose: 4.0 mg/kg/injection, schedule: Q01DX028 (sc), vehicle: carboxymethylcellulose (CMC)): 100 % of control
- T/C (dose: 8.0 mg/kg/injection, schedule: Q01DX028 (sc), vehicle: carboxymethylcellulose (CMC)): 95 % of control
- T/C (dose: 16.0 mg/kg/injection, schedule: Q01DX028 (sc), vehicle: carboxymethylcellulose (CMC)): 92 % of control
- T/C (dose: 23.0 mg/kg/injection, schedule: Q01DX028 (sc), vehicle: carboxymethylcellulose (CMC)): 105 % of control
- T/C (dose: 32.0 mg/kg/injection, schedule: Q01DX028 (sc), vehicle: carboxymethylcellulose (CMC)): 100 % of control
- T/C (dose: 39.0 mg/kg/injection, schedule: Q01DX028 (sc), vehicle: carboxymethylcellulose (CMC)): 97 % of control
- T/C (dose: 65.0 mg/kg/injection, schedule: Q01DX028 (sc), vehicle: carboxymethylcellulose (CMC)): 100 % of control
- T/C (dose: 108.0 mg/kg/injection, schedule: Q01DX028 (sc), vehicle: carboxymethylcellulose (CMC)): 95 % of control
- T/C (dose: 180.0 mg/kg/injection, schedule: Q01DX028 (sc), vehicle: carboxymethylcellulose (CMC)): 95 % of control

Structure (SMILES): Cn1cnc([N+](=O)[O-])c1Sc1ncnc2nc[nH]c12
- T/C (dose: 25.0 mg/kg/injection, schedule: Q01DX028 (sc), vehicle: carboxymethylcellulose (CMC)): 102 % of control
- T/C (dose: 50.0 mg/kg/injection, schedule: Q01DX028 (sc), vehicle: carboxymethylcellulose (CMC)): 111 % of control and 114 % of control
- T/C (dose: 75.0 mg/kg/injection, schedule: Q01DX028 (sc), vehicle: carboxymethylcellulose (CMC)): 108 % of control
- T/C (dose: 100.0 mg/kg/injection, schedule: Q01DX028 (sc), vehicle: carboxymethylcellulose (CMC)): 108 % of control
